Data: ChEMBL document CHEMBL1949517, “Stylissamide X, a new proline-rich cyclic octapeptide as an inhibitor of cell migration, from an Indonesian marine sponge of Stylissa sp” (Bioorg Med Chem Lett, 2012)
Calls of active or inactive are those of the source. The rule behind the calls is not given here. Where a SMILES comes first, the peptide text is derived from it.

Assays:
HeLa [1] = assay: Anti-cell migration activity at human HeLa cells at 0.1 to 10 uM after 24 hrs by wound healing assay; assay type: functional, cell-based
HeLa [2] = assay: Anti-cell migration activity at EGF-induced human HeLa cells at 0.1 to 10 uM after 24 hrs by Giemsa-staining based chemotaxicell chamber assay; assay type: functional
[3] = Cytotoxicity against human HeLa cells assessed as cell viability at 10 uM after 24 hrs by MTT assay; assay type: cell-based; conditions: read-out: Activity

Q: Which results are given for `CC[C@H](C)[C@@H]1NC(=O)[C@@H]2CCCN2C(=O)[C@H]([C@@H](C)O)NC(=O)[C@H](CC(C)C)NC(=O)[C@@H]2CCCN2C(=O)[C@H](Cc2ccccc2)NC(=O)[C@H](Cc2c[nH]c3ccccc23)NC(=O)[C@@H]2CCCN2C1=O` [STYLISSAMIDE X] (cyclo(FPLTPIPW))?
A: Activity (HeLa [1]): Active; Activity (HeLa [2]): Active; viability at 24 h, 10 µM [3]: > 75%
